Measurements: PMC10321576, “Cyclic peptides target the aromatic cage of a PHD-finger reader domain to modulate epigenetic protein function” (Chemical Science, 2023)
Peptide text beside a SMILES is read from it.

Tests used:
[1] = target: T1, KDM7B PHD (Homo sapiens, UniProt Q9UPP1); experiment: BLI binding; settings: read-out: BLI KD, KDM7B PHD-finger
T1 construct: KDM7B 1-66; made in house
T1 sequence (Q9UPP1 1-66 isoform Q9UPP1-2): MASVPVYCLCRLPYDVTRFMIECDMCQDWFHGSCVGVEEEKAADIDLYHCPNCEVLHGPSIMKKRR
Text: Figure S2. BLI for KDM7 proteins with cyclic peptides.
BLI traces for b inding to KDM7 protein domains immobilised by C-terminal His -tag on Ni -NTA
biosensors, against cyclic peptides. Response trace for each peptide concentration is represented by
a different colour, with the fitted curves overlaid in black.
concentration plotted, with 2-fold dilutions thereafter. Dual domain = PHD+JmjC. […]
against KDM7 and other protein domains. t1/2 = half life (0.693 / Koff)
(1 picture or pasted object on this page, not shown here)

[2] = target: T2, KDM7B PHD-finger (Homo sapiens, UniProt Q9UPP1); experiment: Protein NMR affinity assessment; type: binding; settings: read-out: NMR pKD, KDM7B PHD-finger (converted)
T2 construct: KDM7B 1-66; His-tag (C); made in house
T2 sequence (Q9UPP1 1-66 isoform Q9UPP1-2): T1 sequence (Q9UPP1 1-66 isoform Q9UPP1-2)

[3] = test system: full-length KDM7B; experiment: Pull-down from transfected HEK293T nuclear lysates; type: binding; settings: 100-fold excess competitor
Method: HEK293T cells were transiently transfected with either a full-length wild-type KDM7B, or an aromatic cage inactivating mutant KDM7B (Y14A, W29A).[20]
Capture was performed with 1 μM probe incubated in pre-cleared lysate, recovered with streptavidin-conjugated magnetic beads, then washed and eluted by heating in denaturing solution. 100-fold excess OC9 or OC9 V10A were used as competitors. […] The upper left quadrant indicates >5-fold difference in recovered protein (based on T-test difference of mean log 2 (LFQ) values) and p-value threshold <0.05.

Structure (SMILES) | Kd [1] | Kd [2] | competition of OC9-Bt pull-down of KDM7B [3]
CC(C)C[C@@H]1NC(=O)[C@H](Cc2ccc(O)cc2)NC(=O)[C@H](Cc2ccc(O)cc2)NC(=O)CSC[C@@H](C(N)=O)NC(=O)[C@H]([C@@H](C)O)NC(=O)[C@H](CCCNC(=N)N)NC(=O)[C@H](Cc2ccccc2)NC(=O)[C@@H](C(C)C)NC(=O)[C@H](CO)NC(=O)[C@@H]2CCCN2C(=O)[C@H](Cc2ccc(O)cc2)NC(=O)[C@@H]2CCCN2C(=O)[C@H](Cc2c[nH]cn2)NC(=O)[C@H]([C@@H](C)O)NC1=O [OC9 V10DV] (HELM PEPTIDE1{[O=C(C[*:3])[*:2]].Y.Y.L.T.H.P.Y.P.S.[dV].F.R.T.C.[am]}$PEPTIDE1,PEPTIDE1,1:R3-15:R3$$$V2.0; C-terminus assumed) | > 10 µM | > 501 µM | –
CC(C)C[C@@H]1NC(=O)[C@H](Cc2ccc(O)cc2)NC(=O)[C@H](Cc2ccc(O)cc2)NC(=O)CSC[C@@H](C(N)=O)NC(=O)[C@H]([C@@H](C)O)NC(=O)[C@H](CCCNC(=N)N)NC(=O)[C@H](Cc2ccccc2)NC(=O)[C@H](C)NC(=O)[C@H](CO)NC(=O)[C@@H]2CCCN2C(=O)[C@H](Cc2ccc(O)cc2)NC(=O)[C@@H]2CCCN2C(=O)[C@H](Cc2c[nH]cn2)NC(=O)[C@H]([C@@H](C)O)NC1=O [V10A] (HELM PEPTIDE1{[O=C(C[*:3])[*:2]].Y.Y.L.T.H.P.Y.P.S.A.F.R.T.C.[am]}$PEPTIDE1,PEPTIDE1,1:R3-15:R3$$$V2.0; C-terminus assumed) | – | – | did not reduce recovery so substantially
